Results on 13 compounds are retold here after ChEMBL document CHEMBL5500336, “Recent advances in developing modified C14 side chain pleuromutilins as novel antibacterial agents” (Eur J Med Chem, 2024).

Type in all cases: functional
The test system of test [1] is Staphylococcus aureus. The experiment in a line: Antimicrobial activity against […] Staphylococcus aureus ATCC 33591 assessed as inhibition of microbial growth measured after 20 to 24 hrs incubation by CLSI method. As to conditions: time 20-24 hrs.
Test [2] relates to Staphylococcus aureus. Briefly: Antimicrobial activity against […] Staphylococcus aureus ATCC 43300 assessed as inhibition of microbial growth measured after 20 to 24 hrs incubation by CLSI method. Conditions: time 20-24 hrs.
Test [3] concerns Escherichia coli. Briefly: Antibacterial activity against Escherichia coli ATCC 25922 assessed as bacterial growth inhibition measured after 18 hrs by CLSI based method.
Test [4] deals with Staphylococcus aureus. Briefly: Antibacterial activity against […] Staphylococcus aureus ATCC 25923 assessed as reduction in bacterial growth measured after 24 hrs by MH broth based assay.
The subject of test [5] is Staphylococcus epidermidis. Briefly: Antibacterial activity against […] Staphylococcus epidermidis ATCC 51625 assessed as inhibition of bacterial growth measured after 24 hrs by MH broth based assay.
Test [6] deals with Staphylococcus aureus. The experiment in a line: Antibacterial activity against […] Staphylococcus aureus BNCC 337371 assessed as bacterial growth inhibition incubated for 18 to 24 hrs by NCCLS based assay. As to conditions: time 18-24 hrs.
The subject of test [7] is Staphylococcus aureus. Briefly: Antimicrobial activity against […] Staphylococcus aureus ATCC 33591 assessed as reduction in microbial growth incubated for 24 hrs by CLSI protocol based analysis.
Test [8] deals with Staphylococcus aureus. The experiment in a line: Antibacterial activity against […] Staphylococcus aureus ATCC 43300 assessed as inhibition of bacterial growth.
Test [9] has as its system Staphylococcus aureus. Briefly: Antibacterial activity against […] Staphylococcus aureus ATCC 43300 assessed as inhibition of bacterial growth measured after 24 hrs by MH broth based assay.
Test [10] has as its system Staphylococcus. Briefly: Antimicrobial activity against methicillin-resistant coagulase negative Staphylococcus P1369 at 1 nmol relative to control.
Test [11] has as its system Staphylococcus aureus. Briefly: Antibacterial activity against […] Staphylococcus aureus ATCC 43300 assessed as reduction in microbial growth after 16 hrs by broth microdilution method. Background: Broth dilution looks for growth in wells or tubes with falling amounts of substance.
Test [12] deals with Staphylococcus aureus. Briefly: Antibacterial activity against Methicillin-resistant Staphylococcus aureus assessed as bacterial growth inhibition.
The test system of test [13] is Staphylococcus aureus. The experiment in a line: Antibacterial activity against Methicillin-sensitive Staphylococcus aureus assessed as bacterial growth inhibition.
Test [14] relates to Staphylococcus epidermidis. The experiment in a line: Antibacterial activity against […] Staphylococcus epidermidis ATCC 35984 after 16 to 18 hrs by CLSI protocol based broth microdilution assay. As to conditions: time 16-18 hrs.
Test [15] has as its system Staphylococcus epidermidis. The experiment in a line: Antibacterial activity against methicillin-sensitive Staphylococcus epidermidis ATCC 12228 assessed as reduction in bacterial growth incubated for 18 hrs by agar dilution method. In general terms: Agar dilution tests growth on a series of plates holding different concentrations.
Test [16] concerns Staphylococcus aureus. The experiment in a line: Antibacterial activity against Staphylococcus aureus ATCC 25923 assessed as reduction in bacterial growth incubated for 24 hrs by serial dilution method.

≈ marks a conversion by molar mass, not a printed value.

Broadly, the MIC is the lowest concentration found to suppress growth. As for `C=C[C@]1(C)C[C@@H](OC(=O)CN2CCN(c3ccc(C4CC(c5ccccc5[N+](=O)[O-])=NN4)cc3)CC2)[C@]2(C)[C@H](C)CC[C@]3(CCC(=O)[C@H]32)[C@@H](C)[C@@H]1O` (some centres not stated), the minimum inhibitory concentration (MIC) in test [1] turned out to be 2 µg/mL; in test [2], 2 µg/mL; in test [3], 2 µg/mL (≈ 2.81 µM).

Regarding `C=C[C@]1(C)C[C@@H](OC(=O)CSC2=NC(C)=C(C(=O)OCC)C(C)N2)[C@]2(C)[C@H](C)CC[C@]3(CCC(=O)[C@H]32)[C@@H](C)[C@@H]1O` (some centres not stated), the figures for the MIC in [4], in test [5] and in [6] were 0.125 µg/mL (≈ 0.217 µM), 0.06 µg/mL (≈ 0.104 µM) and 0.06 µg/mL (≈ 0.104 µM), respectively.

For the compound `C=C[C@]1(C)C[C@@H](OC(=O)CSc2nc3c(F)cccc3o2)[C@]2(C)[C@H](C)CC[C@]3(CCC(=O)[C@H]32)[C@@H](C)[C@@H]1O`, in test [7], the minimum inhibitory concentration (MIC) was 0.125 µg/mL.

The term MBC denotes the smallest concentration meeting the test's criterion for killing. Take `C=C[C@]1(C)C[C@@H](OC(=O)CSc2ccc(NC(=O)c3ccc(F)cc3)cc2)[C@]2(C)[C@H](C)CC[C@]3(CCC(=O)[C@H]32)[C@@H](C)[C@@H]1O`: in test [8], the MIC worked out at 0.03 µg/mL (≈ 0.0494 µM). Moreover, in test [9], the MBC was 0.03 µg/mL (≈ 0.0494 µM).

In the case of `C=C[C@]1(C)C[C@@H](OC(=O)CN2CCN(c3ccc(C(=O)/C=C/c4ccc(N)cc4)cc3)CC2)[C@]2(C)[C@H](C)CC[C@]3(CCC(=O)[C@H]32)[C@@H](C)[C@@H]1O`, the minimal inhibitory concentration (MIC) in test [1] and in test [2] was 0.5 µg/mL in each case.

In the case of `C=C[C@]1(C)C[C@@H](OC(=O)CSc2ccc(NC(=O)c3cccs3)cc2)[C@]2(C)[C@H](C)CC[C@]3(CCC(=O)[C@H]32)[C@@H](C)[C@@H]1O`, the MIC in [8] was found to be 0.03 µg/mL (≈ 0.0504 µM). The MBC in test [9] was 0.03 µg/mL (≈ 0.0504 µM).

Regarding `C=C[C@]1(C)C[C@@H](OC(=O)CSC2=NC(C)=C(C(=O)OC)C(C)N2)[C@]2(C)[C@H](C)CC[C@]3(CCC(=O)[C@H]32)[C@@H](C)[C@@H]1O` (some centres not stated), the minimal inhibitory concentration (MIC) in test [4] came out at 0.25 µg/mL (≈ 0.446 µM); in test [5], 0.125 µg/mL (≈ 0.223 µM); in [6], 0.25 µg/mL (≈ 0.446 µM).

As to `C=C[C@]1(C)C[C@@H](OC(=O)CS[C@@H]2CC[C@@H](N)C[C@H]2O)[C@]2(C)[C@H](C)CC[C@]3(CCC(=O)[C@H]32)[C@@H](C)[C@@H]1O` [LEFAMULIN], in test [10], the Activity turned out to be 3.4%.

As for `C=C[C@]1(C)C[C@@H](OC(=O)CSc2ccccc2NC(=O)c2ccccc2C)[C@]2(C)[C@H](C)CC[C@]3(CCC(=O)[C@H]32)[C@@H](C)[C@@H]1O`, the MIC in test [11] was 0.25 µg/mL.

In the case of `C=C[C@]1(C)C[C@@H](OC(=O)CSCc2csc(NC(=O)CN3CCCCC3)n2)[C@]2(C)[C@H](C)CC[C@]3(CCC(=O)[C@H]32)[C@@H](C)[C@@H]1O`, the minimal inhibitory concentration (MIC) in test [12], in [13], in [14] and in [15] was 0.063 µg/mL (≈ 0.0997 µM) each time.

As to `C=C[C@]1(C)C[C@@H](OC(=O)CSc2ccc(NC(=O)c3ccc(C#N)cc3)cc2)[C@]2(C)[C@H](C)CC[C@]3(CCC(=O)[C@H]32)[C@@H](C)[C@@H]1O`, the minimum inhibitory concentration (MIC) in test [8] turned out to be 0.015 µg/mL (≈ 0.0244 µM). Besides, the MBC in test [9] is 0.03 µg/mL (≈ 0.0488 µM).

In the case of `C=C[C@]1(C)C[C@@H](OC(=O)CN2CCN(C(=O)CNC[C@H]3CN(c4ccc(Cl)cc4)C(=O)O3)CC2)[C@]2(C)[C@H](C)CC[C@]3(CCC(=O)[C@H]32)[C@@H](C)[C@@H]1O`, the MIC in [16] was 0.008 µg/mL (≈ 0.0112 µM).

Turning to `C=C[C@]1(C)C[C@@H](OC(=O)CN2CCN(c3ccc(C(=O)/C=C/c4ccc([N+](=O)[O-])cc4)cc3)CC2)[C@]2(C)[C@H](C)CC[C@]3(CCC(=O)[C@H]32)[C@@H](C)[C@@H]1O`, the MIC in test [1] and in test [2] was 0.5 µg/mL throughout.
